Measurements published in PMC3075238 (Bioorganic & medicinal chemistry letters, 2011).

Target: T1, caspase-3 in HeLa cell (Homo sapiens, UniProt P42574)
T1 sequence (P42574 29-175 limits assumed): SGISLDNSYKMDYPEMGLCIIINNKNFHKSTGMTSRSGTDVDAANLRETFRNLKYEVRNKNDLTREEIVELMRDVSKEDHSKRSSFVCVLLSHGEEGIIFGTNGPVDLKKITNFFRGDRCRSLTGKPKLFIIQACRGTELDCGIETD
T1 sequence (P42574 176-277 limits assumed): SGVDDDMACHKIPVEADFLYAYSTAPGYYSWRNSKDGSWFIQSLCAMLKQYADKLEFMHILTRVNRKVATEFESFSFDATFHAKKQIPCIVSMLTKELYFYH
Assay: Apo-One Homogeneous Caspase-3/7 whole cell assay in HeLa cells

inhibition potency for caspase-3 in the whole cell assay (in words): very good inhibition potency
Structure (SMILES): O=C1C(=O)N(Cc2cn(CCF)nn2)c2ccc(S(=O)(=O)N3CCC[C@H]3COc3ccc(F)cc3F)cc21 [Compound 51]
